# Results from US11033630B2, “Method and pharmaceutical composition for treatment of neurodegeneration” (priority 2016, dated 2021).
# Read-outs that look alike come from different tables or passages of the source.
# What was measured:
# [1] = Blood-Brain Barrier (BBB) penetration: DFO concentration in rat brain after IP injection; details: for DFO (mg/g organ) / DFO (mg/whole organ): rat brain, 90 min after IP injection
# Protocol: (§1) In this study, the ability of the Zn-DFO complex to infiltrate into the brain was examined. Rats were injected intraperitoneally (IP) with increasing amounts of DFO alone or Zn-DFO complex, and the concentration of DFO was measured in their brains, thus monitoring their infiltrability.
# (§2) In particular, male Sprague-Dawley (SD) rats (300 g average body weight, 3 animals per group) were injected IP with DFO (250, 500, or 1000 mg/kg body weight). For comparison, Zn-DFO solution in freshly prepared saline was injected IP (250, 500, or 1000 mg/kg body weight, which are equivalent to 883, 442, or 221 mg DFO/kg body weight, respectively).
# (§3) The behavior of the rats was monitored for 90 min following the injection. Then, the animals were euthanized using an injection of ketamine-xylazine, and their hearts, livers, left kidneys, and brains were excised and weighted. Brain samples (300 mg tissue) were homogenized in 3 ml Lysis buffer. Tissue homogenates were incubated at 110° C. for 5 min and centrifuged for 5 min at 14,500 relative centrifugal force (RCF). An equal volume of 40% trichloroacetic acid (TCA) solution was added, forming a solution containing 20% TCA, which was vortexed and centrifuged again. The supernatants were transferred into cuvettes, and DFO concentration was spectrophotometrically measured, after addition of 10 mM of ferric iron solution (as a weak complex of iron, ferric-nitrilo-tri-acetate, at pH=7.4), and scanning the range of λ=380-580 nm. The final concentration was calculated according to the Beer-Lambert law, using εDFO=2460 M^−1cm^−1; the total amount of DFO per gram tissue and per whole brain were calculated.
# [2] = complex with Zn(II); cited from earlier work
# [3] = complex with Ga(III); cited from earlier work
# [4] = complex with Fe(III); cited from earlier work
# [5] = complex with Cu(II); cited from earlier work
# [6] = Behavior of rats monitored after IP injection; details: monitored for 90 min
# Protocol: as §2
# (§4) The behavior of the rats was monitored for 90 min following the injection.
# [7] = tested on: streptozotocin (STZ)-induced model in C57BL/6 mice; assay: Streptozotocin-induced model of Alzheimer disease; type: in vivo; details: IP, Zn-DFO/Ga-DFO 2 and 6 mg/kg daily, Eu-DFO 4 mg/kg
# Protocol: In this study, the therapeutic effect of metal-DFO complex on Alzheimer disease is tested, using the streptozotocin (STZ)-induced model in mice.
# The disease is induced in 10 weeks old male C57BL/6 mice. The animals are placed into a stereotaxic frame for mice with nose and ear bars. STZ (3 mg/kg) or citrate buffer (for the control group) is injected bilaterally into the lateral ventricles at the following coordinates: AP—0.5 mm; ML ±1.1 mm; DV—2.8 mm relative to the bregma in a total volume of 1.5 μl to hemisphere. The injections are repeated 2 days after the first STZ injection (1.5 mg/kg). In order to confirm that the stereotaxic coordinates used throughout the study are suitable for STZ injection into lateral ventricles, FITC-labeled latex microspheres are injected into lateral ventricles and the presence of fluorescence in the surrounding brain tissue is examined 24 h after injection. Mice are treated with Zn-DFO or Ga-DFO daily, by IP injections of 2 mg/kg and 6 mg/kg, and with Eu-DFO as IP injection, 4 mg/kg. During 21 days of the experiment the mice undergo maze tests and novel object recognition (NOR) tests every 7 days. Clinical signs including general body condition and dehydration are monitored daily after the surgery. Every 7 days a representative number of mice is taken from each group and euthanized for Alzheimer's disease markers (amyloid-β protein, neurofilament expression, phosphorylation of Tau protein, synapsin expression) biochemical and histochemical evaluation (Ravelli et al., 2016).
# [8] = tested on: MOG35-55-induced EAE in C57BL/6 mice; assay: Experimental Autoimmune Encephalomyelitis (EAE), model for multiple sclerosis; type: in vivo
# Protocol: In this study, the therapeutic effect of metal-DFO complex on multiple sclerosis (MS) is tested, using the Experimental Autoimmune Encephalomyelitis (EAE) in mice.
# EAE is induced in 8-week-old female C57BL/6 mice by subcutaneous (SC) injection of 125 μg of myelin oligodendrocyte glycoprotein 35-55 peptide (MOG35-55) emulsified in complete Freund's adjuvant (CFA) containing 5 mg/ml heat-killed Mycobacterium tuberculosis into the left para-lumbar region. Immediately thereafter, and again at 48 h, the mice are inoculated intraperitoneal (IP) with 0.5 ml of pertussis toxin (400 ng). Seven days later, the mice are further challenged with an additional injection of MOG35-55 peptide in CFA injected into the right para-lumbar region. Mice are treated with Zn-DFO or Ga-DFO daily as IP injections, 2 mg/kg and 6 mg/kg.
# The severity of the disease is assessed using the scale shown in Table 2 (Bittner et al., 2014).
# [9] = tested on: MPTP model in C57BL/6 mice; assay: MPTP mouse model of Parkinson's disease; type: in vivo; details: 2 mg/kg daily IP
# Protocol: In this study, the therapeutic effect of metal-DFO complex on Parkinson's disease is tested, using the 1-methyl-4-phenyl-1,2,3,6-tetrahydropyridine (MPTP) model in mice.
# Parkinson's disease is induced in 10 weeks old male C57BL/6 mice by four continuous IP injections of 20 mg/kg of MPTP, every 2 hours and during 8 hours, for 5 days (Jackson-Lewis and Przedborski, 2007). The animals are treated with Zn-DFO or Ga-DFO by daily IP injections, 2 mg/kg and 6 mg/kg, 30 min prior to the first exposure to MPTP. On day 8 the animals are euthanized. Immediately after the euthanasia, the striata are dissected out to perform biochemical and histological assessment of the damage to dopaminergic innervation.
# [10] = rat, in vivo, ip
# Protocol: as §1, §2, §3
# [11] = tested on: contusion spinal cord injury model in C57BL/6 mice; assay: Contusion spinal cord injury model; type: in vivo; details: 3 mg/kg IP
# Protocol: In this study, the therapeutic effect of metal-DFO complex on spinal cord injury was tested, using a contusion spinal cord injury model in C57BL/6 mice.
# A contusion spinal cord injury model was employed using Infinite Horizon spinal cord impactor. The injury was performed at force setting of 70 kilodyne, for 100 ms (milisecond) on exposed T12 vertebra of the mouse (8 weeks old male), anesthetized with a ketamine-xylazine mixture (85:15), and immobilized. Immediately before the impact, the mice were injected with buprenorphine (0.1 mg/ml/kg body weight) as an analgesic.
# Twenty one mice, after contusion, were divided into three groups (n=7), according to their treatment as following (Basso et al., 2006): Group 1—control untreated; Group 2—treated with saline (IP injections of 100 μl on Days 1, 2, 3, 4, 6, 8, 10, 12, 14, 17, 20, 23, 27, 31, 35, 39, and 42); Group 3—treated with Zn-DFO complex, 3 mg/kg body weight in saline (IP injections of 100 μl according to the same regimen as Group 2). Both treated groups (saline and Zn-DFO complex) received the first treatment 10 min following the Impactor-induced trauma.
# The post-traumatic recovery of mice locomotion with or without treatment was assessed on a daily basis for the next 43 days, using open field Basso mouse scale (BMS) score as following: 0—no ankle movement; 1—slight ankle movement; 2—extensive ankle movement; 3—plantar placing of the paw with or without weight support, or occasional, frequent or consistent dorsal stepping but no plantar stepping; 4—occasional plantar stepping; 5—frequent or consistent plantar stepping, no coordination, or frequent or consistent plantar stepping, some coordination, paws rotated at initial contact and lift off (R/R); 6—frequent or consistent plantar stepping, some coordination, paws parallel at initial contact (P/R, P/P), or frequent or consistent plantar stepping, mostly coordinated, paws rotated at initial contact and lift off (R/R); 7—frequent or consistent plantar stepping, mostly coordinated, paws parallel at initial contact and rotated at lift off (P/R), or frequent or consistent plantar stepping, mostly coordinated, paws parallel at initial contact and lift off (P/P), and severe trunk instability; 8—frequent or consistent plantar stepping, mostly coordinated, paws parallel at initial contact and lift off (P/P), and mild trunk instability, or frequent or consistent plantar stepping, mostly coordinated, paws parallel at initial contact and lift off (P/P), and normal trunk stability and tail down or up & down; and 9—frequent or consistent plantar stepping, mostly coordinated, paws parallel at initial contact and lift off (P/P), and normal trunk stability and tail always up (P—parallel; R—rotated). The values were normalized considering the basal score on Day 0 as 100%.
# On Day 43, the animals were euthanized, and their spinal cords were excised and stored in paraformaldehyde (PFA) 4% for histological analysis. Epon blocks were prepared, and the histological analysis was performed after staining with methylene blue.
# H9C2 cardiomyocytes = assay: Penetration of cellular membranes in tissue culture model; type: in vitro ADME; details: data not shown
# Excerpt: It is postulated that some of the useful effects exerted by DFO in inhibiting ROS formation are achieved through its actions as a chelating agent (chelant, chelator, or sequestering agent), capable of forming soluble complexes, i.e., chelates, with certain metal ions and consequently inactivating said metal ions such that they cannot normally react with other elements or ions. Such chelates often have chemical and biological properties that are markedly different from those of either the chelator or metal ion, alone. For example, whereas DFO is a molecule having a noodle-like structure that can sparingly infiltrate into cells, metal-chelates formed by said molecule, e.g., the zinc-, gallium- or iron-chelates, assume a globular structure capable of infiltrating into cells.
# [12] = rat, in vivo, ip; remark: listed apart in the source
# Protocol: as §2, §4
compound,measurement,setting,value
"CC(=O)N(O)CCCCCNC(=O)CCC(=O)N(O)CCCCCNC(=O)CCC(=O)N(O)CCCCCN [DFO, N′-[5-(Acetyl-hydroxy-amino)pentyl]-N-[5-[3-(5-aminopentyl-hydroxy-carbamoyl)propanoylamino]pentyl]-N-hydroxy-butane diamide]",DFO (mg/g organ),[1]; 250 mg/kg,<0.005 mg/g organ
same,DFO (mg/whole organ),[1]; 250 mg/kg,<0.005 mg/whole organ
same,DFO (mg/g organ),[1]; 500 mg/kg,<0.005 mg/g organ
same,DFO (mg/whole organ),[1]; 500 mg/kg,<0.005 mg/whole organ
same,DFO (mg/g organ),[1]; 1000 mg/kg,0.008 ± 0.004 mg/g organ
same,DFO (mg/whole organ),[1]; 1000 mg/kg,0.019 ± 0.008 mg/whole organ
same,DFO infiltrated the brain (%),"[1]; rat, IP, 250 mg/kg",<0.0015%
same,DFO infiltrated the brain (%),"[1]; rat, IP, 500 mg/kg",<0.0015%
same,DFO infiltrated the brain (%),"[1]; rat, IP, 1000 mg/kg",0.002%
same,fraction of DFO that had infiltrated into the brain,"[1]; rat, IP, over the 3 doses (250, 500 and 1000 mg/kg)",≤ 0.002%
same,relative stability constant of DFO complex,[2],10^11
same,relative stability constant of DFO complex,[3],10^28
same,relative stability constant of DFO complex,[4],10^31
same,relative stability constant of DFO complex,[5],10^14
same,changes in rats' behavior,[6]; IP 250 mg/kg,no changes in rats' behavior was observed
same,changes in rats' behavior,[6]; IP 500 mg/kg,no changes in rats' behavior was observed
same,changes in rats' behavior,[6]; IP 1000 mg/kg,no changes in rats' behavior was observed
CC(=O)N(O)CCCCCNC(=O)CCC(=O)N(O)CCCCCNC(=O)CCC(=O)N(O)CCCCCN.[Eu+3] [Eu-DFO],diminishing expression of synapsin,[7],Only a minute effect
same,expression of Aβ protein and phosphorylation of Tau protein in the hippocampus,[7],slightly better than Ga-DFO
"CC(=O)N([O-])CCCCCNC(=O)CCC(=O)N([O-])CCCCCNC(=O)CCC(=O)N([O-])CCCCCN.[Ga+3] [Ga-DFO, gallium-desferrioxamine B]",onset of the disease,[8]; 2 mg/kg daily IP,14 days
same,onset of the disease,[8]; 6 mg/kg daily IP,15 days
same,number of TH-positive neurons within the substantia nigra (% of control),[9],65%
same,diminishing expression of synapsin,[7],attenuate this process dose-dependently
same,expression of Aβ protein and phosphorylation of Tau protein in the hippocampus,[7],inhibited
same,impairment of maze and NOR test outcomes,[7],(largely) prevent this impairment in a dose-dependent manner
Zinc-desferrioxamine B [Zn-DFO],infiltrability into the brain relative to DFO alone,[10],at least 8.6 fold
same,DFO (mg/g organ),[10]; 250 mg/kg,0.017 ± 0.002 mg/g organ
same,DFO (mg/whole organ),[10]; 250 mg/kg,0.032 ± 0.004 mg/whole organ
same,DFO infiltrated the brain (%),[10]; 250 mg/kg,0.014%
same,DFO (mg/g organ),[10]; 500 mg/kg,0.031 ± 0.001 mg/g organ
same,DFO (mg/whole organ),[10]; 500 mg/kg,0.054 ± 0.002 mg/whole organ
same,DFO infiltrated the brain (%),[10]; 500 mg/kg,0.012%
same,DFO (mg/g organ),[10]; 1000 mg/kg,0.072 ± 0.011 mg/g organ
same,DFO (mg/whole organ),[10]; 1000 mg/kg,0.133 ± 0.010 mg/whole organ
same,DFO infiltrated the brain (%),[10]; 1000 mg/kg,0.014%
same,onset of the disease,[8]; 2 mg/kg daily IP,14 days
same,onset of the disease,[8]; 6 mg/kg daily IP,15 to 16 days
same,peak clinical score,"[8]; 6 mg/kg daily IP, Day 19, Table 2 scale",less than 3
same,number of TH-positive neurons within the substantia nigra (% of control),[9],65%
same,diminishing expression of synapsin,[7],attenuate this process dose-dependently
same,expression of Aβ protein and phosphorylation of Tau protein in the hippocampus,[7],inhibited
same,impairment of maze and NOR test outcomes,[7],(largely) prevent this impairment in a dose-dependent manner
same,BMS score,[11]; Day 13,5.1
same,"normalized BMS score (% of initial scoring, Day 0)",[11]; Day 13,347%
same,"normalized BMS score (% of initial scoring), plateau",[11]; Day 29,389%
same,"BMS score, plateau","[11]; Day 29, scale 0-9",5.7
same,density of axons and axonal myelin sheath in white matter,"[11]; spinal cord histology, Day 43",restoring the density of axons and axonal myelin sheath
same,white matter area (fraction of the total area),"[11]; spinal cord histology, Day 43",50.8±3.3%
same,body weight gain,[11]; vs non-treated or saline-treated animals,gained weight better than the non-treated or saline-treated animals
same,ability to infiltrate into the cells relative to DFO alone,H9C2 cardiomyocytes,more than threefold higher
same,changes in rats' behavior,[12]; 250 mg/kg,no changes in the rats' behavior could be identified
same,changes in rats' behavior,[12]; 500 mg/kg,no changes in the rats' behavior could be identified
same,changes in rats' behavior,[12]; 1000 mg/kg,passive and apathetic
